Laboratory results as given in US20050004029A1, “Methods and compositions for treating vascular leak using hepatocyte growth factor” (priority 2001, published 2005).
Where “and” joins values, the source holds several entries; their conditions need not be identical. Identical values can stand only once.

Tested on: Human pulmonary artery endothelial cells
Experiment: Transendothelial electrical resistance (TER) of human pulmonary artery endothelial cell monolayers
Assay type: cell-based
Description: Bovine pulmonary artery endothelial cells were purchased from the American Type Culture Collection (ATCC®, Rockville, Md.) and utilized at passage 19-24. Cells were maintained in Medium 199 (Life Technologies, Rockville, Md.) supplemented with 20% (v/v) colostrum-free bovine serum (CFBS) (Irvine Scientific, Santa Ana, Calif.), 15 μg/ml endothelial cell growth supplement (Upstate Biotechnology, Lake Placid, N.Y.), 1% antibiotic and antimycotic, and 0.1 mM non-essential amino acids (Life Technologies). Human pulmonary artery endothelial cells were purchased from Clonetics (Walkersville, Md.), cultured in EBM-2 complete medium (Clonetics) and utilized at passage 5-10. Human alveolar epithelial cells (A549) were purchased from ATCC® and cultured in the same medium as the bovine endothelial cells, except that the endothelial cell growth supplement was omitted. All cells were maintained at 37° C. in a humidified atmosphere of 5% CO2 and 95% air. Both endothelial cell types grew to contact-inhibited monolayers with the typical cobblestone morphology (Garcia, J. G. N. et al. (1995) J. Cell. Physiol. 163:510-522; Liu, F. et al. (2001) Am. J. Respir. Cell. Mol. Biol. 24:711-719).
Electrical resistance of EC monolayers was measured using electrical cell impedance sensor system (Applied Biophysics Inc., Troy, N.Y.) as described in Garcia, J. G. N. et al. (2000) J. Appl. Physiol. 89:2333-2343. Cells grown on gold microelectrodes (10^−3 cm^2) in polycarbonate wells act as insulating particles, and the resistance across the monolayers (transendothelial electrical resistance, or TER) is measured in real time. As cells adhere on the microelectrode and intercellular cell contacts are formed or in response to agents which increase junctional integrity, the TER increases (Garcia, J. G. N. et al. (2001) J. Clin. Invest. 108:689-711). In contrast, cell retraction, rounding, or loss of adhesion is reflected by decreases in TER (Garcia, J. G. N. et al. (2000) J. Appl. Physiol. 89:2333-2343). These measurements provide a highly sensitive biophysical assay that indicates the state of cell shape, focal adhesion, and endothelial barrier function (Giaever, I. and Keese, C. R. (1993) Nature 366:591-592; Tiruppathi, C. et al. (1992) Proc. Natl. Acad. Sci. USA 89:7919-7923). All electrical resistance data are presented as normalized values. Briefly, current was applied across the electrodes by a 4000 Hz AC voltage source with an amplitude of 1 V in series with a 1 MΩ resistance to approximate a constant current source (−1 μA). The small gold electrode and the larger counter electrode (1 cm^2) were connected to a phase-sensitive lock-in amplifier (5301A; EG&G Instruments Corp, Princeton, N.J.) with a built in differential preamplifier (5316A; EG&G Instruments Corp.). The in-phase and out-of-phase voltages between the electrodes were monitored in real time with the lock-in amplifier and converted to scalar measurements of transendothelial impedance, of which resistance was the primary focus. Transendothelial electrical resistance was monitored for 30 min to establish a baseline resistance (Ro) which, for human lung endothelium, was typically between 8 to 12×10^3 Ω (wells with R0<7×10^3 Ω or R0 >15×10^3 Ω were rejected). For some experiments, total TER was vectorially resolved into components reflecting resistance to current flow beneath the cell layer (α) and resistance to current flow between adjacent cells (Rb) as described in Garcia et al. (2000) supra utilizing the method of Giaiver and Keese which models the endothelial monolayer mathematically (Giaever, I. and Keese, C. R. (1993) Nature 366:591-592). Thus, changes in α reflect alterations in the net state of cell-matrix adhesion, whereas changes in Rb reflect alterations in the integrity of cell-cell adhesion. TER values from each microelectrode were pooled at discrete time points and plotted versus time as the mean±standard error of the mean (Garcia et al. (2000) supra). […]

HGF: heparin-binding glycoprotein, multifunctional cytokine, ligand of c-Met; purchased from R&D Systems
increase in TER (barrier enhancement) (HGF 100 ng/ml, at peak): ~50% and > 50%
direct effect on TER (HGF 2-100 ng/ml, NK2 1-100 ng/ml): increased TER in a dose-dependent manner
time at which elevation in TER is clearly evident (HGF 2 to 100 ng/ml): 1 to 2 min
further increase in TER above 100 ng/ml (HGF >100 ng/ml): No further significant increases in TER
time of peak TER increase (after exposure to 100 ng/ml HGF): 15 to 20 min
TER response to re-stimulation with HGF (10 ng/ml) at 2 hr (pretreatment with HGF at 10 and 100 ng/mL): significantly reduced the subsequent HGF responses
TER response to re-stimulation with HGF (10 ng/ml) at 2 hr (prior HGF stimulation at 1 ng/ml): not altered
paracellular junction resistance (Rb) (vectorial partitioning of TER after HGF treatment): sharp increases
